{"source": "patent US9993554B2", "about": "(CENTRO NACIONAL DE INVESTIGACIONES ONCOLOGICAS (CNIO), priority 2010, dated 2018)", "key": {"[1]": {"target": "PI3K isoform p110δ (Homo sapiens, UniProt O00329)", "sequence (O00329 whole entry, canonical isoform)": "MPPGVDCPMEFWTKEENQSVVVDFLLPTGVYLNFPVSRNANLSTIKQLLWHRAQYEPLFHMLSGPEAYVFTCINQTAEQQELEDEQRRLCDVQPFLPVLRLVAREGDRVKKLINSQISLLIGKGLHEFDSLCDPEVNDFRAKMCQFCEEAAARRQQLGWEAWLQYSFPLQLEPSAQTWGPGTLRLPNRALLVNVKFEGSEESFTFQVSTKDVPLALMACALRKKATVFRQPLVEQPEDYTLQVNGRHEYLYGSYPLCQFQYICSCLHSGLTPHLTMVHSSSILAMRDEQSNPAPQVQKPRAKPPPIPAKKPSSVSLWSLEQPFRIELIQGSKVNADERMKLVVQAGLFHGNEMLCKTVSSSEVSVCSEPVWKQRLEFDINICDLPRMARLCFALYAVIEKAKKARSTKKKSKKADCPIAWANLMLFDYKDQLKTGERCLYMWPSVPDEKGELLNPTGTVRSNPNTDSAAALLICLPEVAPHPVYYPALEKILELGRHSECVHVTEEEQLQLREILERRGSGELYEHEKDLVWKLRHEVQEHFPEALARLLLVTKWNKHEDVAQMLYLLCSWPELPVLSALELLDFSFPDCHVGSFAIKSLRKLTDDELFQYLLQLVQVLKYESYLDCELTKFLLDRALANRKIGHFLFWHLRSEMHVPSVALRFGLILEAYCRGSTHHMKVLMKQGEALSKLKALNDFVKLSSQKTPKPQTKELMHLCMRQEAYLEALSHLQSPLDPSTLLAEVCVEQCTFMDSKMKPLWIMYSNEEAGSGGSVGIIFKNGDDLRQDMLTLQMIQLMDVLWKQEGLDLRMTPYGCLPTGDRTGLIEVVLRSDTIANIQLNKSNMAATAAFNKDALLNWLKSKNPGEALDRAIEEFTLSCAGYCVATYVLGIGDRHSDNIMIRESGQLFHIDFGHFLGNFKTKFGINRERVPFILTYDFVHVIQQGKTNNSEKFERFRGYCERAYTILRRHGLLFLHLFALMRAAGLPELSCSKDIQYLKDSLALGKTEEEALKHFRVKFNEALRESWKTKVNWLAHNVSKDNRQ", "sequence (P27986 whole entry partner, canonical isoform)": "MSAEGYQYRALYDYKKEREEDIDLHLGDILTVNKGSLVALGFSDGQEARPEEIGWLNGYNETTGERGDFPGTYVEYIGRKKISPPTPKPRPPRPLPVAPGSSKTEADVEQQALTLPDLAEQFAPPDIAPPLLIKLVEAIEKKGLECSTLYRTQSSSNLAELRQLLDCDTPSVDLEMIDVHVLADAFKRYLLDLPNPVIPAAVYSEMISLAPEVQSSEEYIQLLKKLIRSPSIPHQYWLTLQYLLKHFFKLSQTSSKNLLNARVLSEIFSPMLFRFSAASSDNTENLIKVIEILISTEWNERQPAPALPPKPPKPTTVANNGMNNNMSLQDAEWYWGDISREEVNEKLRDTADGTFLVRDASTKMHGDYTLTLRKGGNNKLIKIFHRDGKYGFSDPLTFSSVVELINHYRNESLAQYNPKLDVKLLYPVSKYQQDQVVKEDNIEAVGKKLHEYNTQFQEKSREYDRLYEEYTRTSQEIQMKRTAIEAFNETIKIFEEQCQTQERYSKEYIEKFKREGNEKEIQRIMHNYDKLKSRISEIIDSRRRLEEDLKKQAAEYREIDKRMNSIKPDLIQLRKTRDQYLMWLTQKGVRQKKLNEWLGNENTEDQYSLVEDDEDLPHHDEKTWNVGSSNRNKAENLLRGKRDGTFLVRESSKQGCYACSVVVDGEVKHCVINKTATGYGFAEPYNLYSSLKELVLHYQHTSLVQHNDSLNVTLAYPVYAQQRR", "test": "Inhibition of PI3K isoform p110δ", "format": "biochemical"}, "[2]": {"test_system": "282 additional kinases including mTOR and DNAPK", "test": "Inhibition of additional kinases (panel)", "format": "biochemical"}, "[3]": {"test_system": "pre-brown adipocytes", "test": "Immortalized neonatal (pre-)brown adipocytes treated with PI3K inhibitors: phospho-Akt and Ucp1 mRNA", "format": "cell-based, mice", "settings": "4 h", "experimental": "Pre-brown adiposcytes were treated with Compound A or with the indicated PI3KI for 4 h. After this time, extracts were prepared for analysis of phospho-Akt (upper panels) or for analysis of Ucp1 mRNA levels (lower panels).\nMouse Embryonic Fibroblasts (MEFs) were isolated at E13.5 as previously described^42. For insulin stimulation, primary MEFs were serum starved (0% FBS) for 12 h, followed by 60 min incubation with PBS and then stimulated with 1 μg/ml of insulin (Sigma) during 30 min. For oncogenic transformation, primary MEFs were retrovirally transduced with pLXSN-neo-E6 and either pWZL-blast-middle-T (kindly provided by Jean Zhao, Dana-Farber Cancer Institute, Boston) or pBABE-puro-EGFRL858R (kindly provided by William Sellers and Matthew Meyerson, Addgene plasmid #11012)^43. After the corresponding drug selection 20,000 cells were plated in 10 cm diameter plates, and 2 weeks later were fixed and stained with 20% Giemsa. Immortalized brown adipocyte cell lines were obtained from the interscapular BAT of 3-5 day-old neonates, treated with and cultured as previously described^33. For immortalization, cultures were retrovirally transduced with Large-T antigen (in vector pBABE-puro, kindly provided by James de Caprio, Dana Farber Cancer Institute, Boston). For the reprogramming of 3T3-L1 adipocytes into brownadipocytes, we followed the method previously reported^50. Briefly, 3T3-L1 cells were retrovirally transduced with pBABE-puro-Cebpb (kindly provided by Roger R. Gomis, IRB, Barcelona). After drug selection with puromycin, cells were grown to confluence and subsequently cultured for 48 h with “differentiation medium” (DMEM 10% FBS, 20 nM insulin, 1 nM T3, 1 μM rosiglitazone, 0.5 mM isobutylmethylxanthine, 125 nM indomethacin, 5 μM dexamethasone). After this, cells were exposed to “maintenance medium” (DMEM 10% FBS, 20 nM insulin, 1 nM T3) for 4 days. For the experiment shown in FIG. 4d, differentiated 3T3-L1/Cebpβ or non-differentiated neonatal immortalized brown adipocytes cultures were PBS washed and treated with “regular medium” (DMEM 10% FBS) containing 10 μM forskolin (Sigma) and/or or 1 μM Compound A for 4 h.\nImmortalized brown adipocytes were obtained from the interscapular BAT of 3-5 day-old neonates and immortalized by retroviral transduction of Large-T antigen (in vector pBABE-puro, kindly provided by James de Caprio, Dana Farber Cancer Institute, Boston). […]\nFor RNA analyses, total RNA from pre-brown adipocytes was extracted using TRIZOL (Invitrogen). Reverse transcription was performed using random primers and Ready-To-Go™ You-Prime First-Strand Beads (GE Healthcare). Quantitative real time-PCR was performed using DNA Master Sybr Green I mix (Applied Biosystems) in an ABI PRISM 7700 thermocycler (Applied Biosystem). […]"}, "[4]": {"test_system": "phospho-Ser-473-Akt", "test": "AKT phosphorylation inhibition, Western blot cell assay", "format": "cell-based", "settings": "Homo sapiens; read-out: IC50, cell assay (p-AKT Western Blot)", "experimental": "The cell lines were obtained from the American Type Culture Collection (ATCC). U2OS (human osteosarcoma) was cultured in Dulbecco's modified Eagle's medium (DMEM). PC3 (human prostate carcinoma), MCF7 (human breast cardinoma), HCT116 (human colon carcinoma), 768-0 (human neuroblastoma), U251 (human glyoblastoma) were grown in RPMI. All media were supplemented with 10% fetal bovine serum (FBS) (Sigma) and antibiotics-antimycotics. Cell were maintained in a humidified incubator at 37° C. with 5% CO2 and passaged when confluent using trypsin/EDTA.\nSubconfluent cells were incubated under different conditions and washed twice with TBS prior to lysis. Lysis buffer was added containing 50 mM Tris HCl, 150 mM NaCl, 1% NP-40, 2 mM Na3VO4, 100 mM NaF, 20 mM Na4P2O7 and protease inhibitor cocktail (Roche Molecular Biochemicals). The proteins were resolved on 10% SDS-PAGE and transferred to nitrocellulose membrane (Schleicher & Schuell, Dassel, Germany). The membranes were incubated overnight at 4° C. with antibodies specific for Akt, phospho-Ser-473-Akt (Cell Signaling Technology) and α-tubulin (Sigma), they were washed and then incubated with IRDye800 conjugated anti-mouse and Alexa Fluor 680 goat anti-rabbit IgG secondary antibodies. The bands were visualized using an Odyssey infrared imaging system (Li-Cor Biosciences)."}, "[5]": {"target": "PI3K isoform p110γ (Homo sapiens, UniProt P48736)", "sequence (P48736 whole entry, canonical isoform)": "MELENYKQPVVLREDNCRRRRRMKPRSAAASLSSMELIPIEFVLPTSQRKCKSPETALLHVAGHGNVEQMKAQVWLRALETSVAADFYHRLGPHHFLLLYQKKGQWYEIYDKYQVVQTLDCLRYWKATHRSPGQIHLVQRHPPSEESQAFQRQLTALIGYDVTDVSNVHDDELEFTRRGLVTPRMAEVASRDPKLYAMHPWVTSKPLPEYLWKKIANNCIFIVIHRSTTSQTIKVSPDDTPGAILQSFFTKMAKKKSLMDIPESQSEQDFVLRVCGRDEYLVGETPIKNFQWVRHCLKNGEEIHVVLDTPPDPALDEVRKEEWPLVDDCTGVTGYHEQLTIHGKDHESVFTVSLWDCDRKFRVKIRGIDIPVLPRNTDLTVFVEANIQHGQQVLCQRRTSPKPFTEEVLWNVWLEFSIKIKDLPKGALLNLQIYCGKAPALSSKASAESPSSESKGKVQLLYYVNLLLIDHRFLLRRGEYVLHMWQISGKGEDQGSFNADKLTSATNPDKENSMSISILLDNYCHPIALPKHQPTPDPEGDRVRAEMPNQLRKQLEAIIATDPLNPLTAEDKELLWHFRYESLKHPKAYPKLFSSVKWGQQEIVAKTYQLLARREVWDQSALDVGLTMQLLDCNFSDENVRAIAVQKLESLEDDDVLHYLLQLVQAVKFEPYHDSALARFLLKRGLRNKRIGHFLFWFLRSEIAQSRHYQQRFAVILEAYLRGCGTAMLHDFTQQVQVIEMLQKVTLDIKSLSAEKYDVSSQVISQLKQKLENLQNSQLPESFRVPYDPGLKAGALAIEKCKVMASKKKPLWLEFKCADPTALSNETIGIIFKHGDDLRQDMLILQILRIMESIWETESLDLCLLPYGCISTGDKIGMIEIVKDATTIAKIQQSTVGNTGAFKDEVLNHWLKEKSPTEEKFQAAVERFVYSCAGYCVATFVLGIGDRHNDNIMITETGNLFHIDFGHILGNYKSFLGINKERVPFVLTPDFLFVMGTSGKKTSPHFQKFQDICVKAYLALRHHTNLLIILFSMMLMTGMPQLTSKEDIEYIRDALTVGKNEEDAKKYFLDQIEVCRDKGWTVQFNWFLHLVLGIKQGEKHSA", "test": "Inhibition of PI3K isoform p110γ", "format": "biochemical"}, "[6]": {"test_system": "brown adipose tissue (BAT) of C57BL6 mice", "test": "In vivo inhibition of PI3K: mRNA levels in BAT", "settings": "15 mg/kg by gavage, 6 h, C57BL6 males", "experimental": "For in vitro assays Compound A was added at a concentration of 1 μM. For in vivo assays, Compound A″ was administered orally by gavage at a dose of 15 mg/kg. Mice were sacrificed 6 h after and tissues were extracted and analyzed. Treated mice were C57BL6 males, 3 months old.\nTotal RNA from tissues or fibroblasts was extracted using TRIZOL (Invitrogen). Reverse transcription was performed using random primers and Ready-To-Go™ You-Prime First-Strand Beads (GE Healthcare). Quantitative real time-PCR was performed using DNA Master Sybr Green I mix (Applied Biosystems) in an ABI PRISM 7700 thermocycler (Applied Biosystem). Primer sequences are described in Supp."}}, "data": [{"smiles": "CS(=O)(=O)N1CCN(Cc2cn3c(Cl)c(-c4cnc(N)nc4)nc(N4CCOCC4)c3n2)CC1", "note": "[Compound A]", "values": [{"measurement": "Ki", "setting": "[1]", "value": 9.8, "unit": "nM"}, {"measurement": "IC50", "setting": "[2]", "value": "< 1000", "unit": "nM"}, {"measurement": "inhibition of the phosphorylation of Akt", "setting": "[3]; 1 microM", "value": "measurable inhibition"}, {"measurement": "up-regulation of Ucp1 mRNA levels", "setting": "[3]; 10-20 microM", "value": "8-20 fold"}, {"measurement": "inhibition of the phosphorylation of Akt", "setting": "[3]; 10 microM", "value": "complete inhibition"}, {"measurement": "expression of Ucp1", "setting": "[3]; immortalized neonatal brown adipocytes (three independent lines), 1 μM", "value": "upregulated"}, {"measurement": "IC50", "setting": "[4]", "value": 5, "unit": "nM"}, {"measurement": "Ki", "setting": "[5]", "value": "> 100", "unit": "nM"}, {"measurement": "Lcad mRNA in the BAT", "setting": "[6]", "value": "significant upregulation"}, {"measurement": "Pgc1a mRNA in the BAT", "setting": "[6]", "value": "significant upregulation"}, {"measurement": "Ucp1 mRNA in the BAT", "setting": "[6]", "value": "significant upregulation"}]}]}
